Assay results published in PMC5458547, “Discovery of first-in-class reversible dual small molecule inhibitors against G9a and DNMTs in hematological malignancies” (Nature Communications, 2017).

Columns and labels:
[1] = in vivo; parameters: species or system mice; settings: mouse, iv
[2] = tested on: SK-MEL-28; experiment: Cell proliferation assay (MTS); format: cell-based; settings: Homo sapiens, Melanoma
[3] = tested on: OPM2; experiment: Cell proliferation assay (MTS); format: cell-based; settings: Homo sapiens, OPM-2; MM
[4] = tested on: MV4-11; experiment: Cell proliferation assay (MTS); format: cell-based; settings: Homo sapiens, MV4-11; AML, 48 h; read-out: GI50
[5] = Maximum tolerated dose; settings: mouse, in vivo, iv
[6] = tested on: MOLM-13; experiment: Cell proliferation assay (MTS); format: cell-based; settings: Homo sapiens, AML, 48 h
[7] = molecular target: T1, Jarid1B (Homo sapiens, UniProt Q9UGL1); experiment: Epigenetics selectivity panel (BPS Bioscience); format: biochemical
T1 construct: purchased DiscoverX KINOMEscan (kinases); BPS Bioscience (epigenetic targets)

[8] = molecular target: T2, cytochrome P450 3A4 (Homo sapiens, UniProt P08684); format: in vitro ADME; settings: microsomes, 10 min, 10 µM
T2 construct: tissue BD Gentest; host or cells: human liver microsomes
Protocol: (§1) Details are provided in Supplementary Information. […]
(§2) 3A4) was evaluated in human liver microsomes at Wuxi (http://www.wuxi.com/). Test compounds (10 µM) and the corresponding substrates for each P450 isoform (20 µL) were incubated with 140 µL liver […]
(§3) reaction was terminated by adding 400 µL cold stop solution (200 ng/mL tolbutamide in ACN) and samples were centrifuged at 4000 rpm for 20 minutes. Supernatants were analyzed by LC-MS/MS (Shimadzu LC 20-AD - API 4000), using peak area ratio of analyte/internal standard. Test compounds and positive controls were tested in duplicates. The percentage of inhibition was calculated as the ratio of substrate metabolite detected in treated and non-treated wells. […]

[9] = molecular target: T3, cytochrome P450 2C19 (Homo sapiens, UniProt P33261); format: in vitro ADME; settings: microsomes, 10 min, 10 µM
T3 construct: tissue BD Gentest; host or cells: human liver microsomes
Protocol: as §1, §2, §3

[10] = molecular target: T4, cytochrome P450 2C9 (Homo sapiens, UniProt P11712); format: in vitro ADME; settings: microsomes, 10 min, 10 µM
T4 construct: tissue BD Gentest; host or cells: human liver microsomes
Protocol: as §1, §2, §3

[11] = molecular target: T5, cytochrome P450 2D6 (Homo sapiens, UniProt P10635); format: in vitro ADME; settings: microsomes, 10 min, 10 µM
T5 construct: tissue BD Gentest; host or cells: human liver microsomes
Protocol: as §1, §2, §3

[12] = tested on: RT-4; experiment: Cell proliferation assay (MTS); format: cell-based; settings: Homo sapiens, Bladder
[13] = molecular target: T6, DNMT3B (Homo sapiens, UniProt Q9UBC3); experiment: Epigenetics selectivity panel (BPS Bioscience); format: biochemical
T6 construct: purchased BPS Bioscience (contract panel)

[14] = molecular target: T7, GLP (Homo sapiens, UniProt Q9H9B1); experiment: Radioligand binding assay (3H-SAM), Reaction Biology; format: biochemical
T7 construct: purchased BPS Bioscience (contract panel)
T7 sequence (Q9H9B1 1-1298): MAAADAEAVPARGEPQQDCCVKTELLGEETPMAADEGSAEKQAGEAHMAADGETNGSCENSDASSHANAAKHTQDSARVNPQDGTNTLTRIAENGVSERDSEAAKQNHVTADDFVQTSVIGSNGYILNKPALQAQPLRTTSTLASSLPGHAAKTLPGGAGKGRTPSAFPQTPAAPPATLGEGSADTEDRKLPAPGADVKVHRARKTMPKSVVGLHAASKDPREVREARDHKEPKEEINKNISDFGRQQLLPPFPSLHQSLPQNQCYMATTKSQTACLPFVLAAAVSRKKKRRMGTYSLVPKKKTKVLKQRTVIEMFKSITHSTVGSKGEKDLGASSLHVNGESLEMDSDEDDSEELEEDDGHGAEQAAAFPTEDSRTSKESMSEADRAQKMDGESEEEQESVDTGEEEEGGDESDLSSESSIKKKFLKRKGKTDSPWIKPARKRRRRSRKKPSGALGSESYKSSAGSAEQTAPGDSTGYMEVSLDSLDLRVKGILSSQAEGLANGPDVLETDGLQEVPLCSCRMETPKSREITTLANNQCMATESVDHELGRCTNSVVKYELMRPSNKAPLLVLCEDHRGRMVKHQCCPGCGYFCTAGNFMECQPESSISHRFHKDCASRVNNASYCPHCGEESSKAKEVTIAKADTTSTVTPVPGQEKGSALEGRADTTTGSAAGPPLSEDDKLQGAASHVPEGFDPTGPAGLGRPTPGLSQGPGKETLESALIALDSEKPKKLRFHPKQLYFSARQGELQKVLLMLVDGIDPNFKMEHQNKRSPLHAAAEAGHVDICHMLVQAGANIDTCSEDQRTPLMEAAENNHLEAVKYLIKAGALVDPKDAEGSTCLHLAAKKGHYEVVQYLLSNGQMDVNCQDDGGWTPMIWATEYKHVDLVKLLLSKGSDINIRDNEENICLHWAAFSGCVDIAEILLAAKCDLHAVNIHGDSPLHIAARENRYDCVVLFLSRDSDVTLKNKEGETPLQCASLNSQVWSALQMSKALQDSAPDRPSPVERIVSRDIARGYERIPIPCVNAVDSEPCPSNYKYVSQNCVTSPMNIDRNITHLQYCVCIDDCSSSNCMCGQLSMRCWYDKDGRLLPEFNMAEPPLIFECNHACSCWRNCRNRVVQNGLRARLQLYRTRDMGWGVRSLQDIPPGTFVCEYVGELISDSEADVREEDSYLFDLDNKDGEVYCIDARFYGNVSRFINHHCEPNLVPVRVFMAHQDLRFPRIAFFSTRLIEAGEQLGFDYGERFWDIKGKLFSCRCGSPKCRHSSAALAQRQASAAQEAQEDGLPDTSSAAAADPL
Protocol: The radioligand binding assay against G9a, DNMT1 and GLP was performed by Reaction Biology Corporation (http://www.reactionbiology.com).

[15] = tested on: N417; experiment: Cell proliferation assay (MTS); format: cell-based; settings: Homo sapiens, SCLC
[16] = molecular target: T8, ATAD2B (Homo sapiens, UniProt Q9ULI0); experiment: Epigenetics selectivity panel (BPS Bioscience); format: binding
T8 construct: purchased DiscoverX KINOMEscan (kinases); BPS Bioscience (epigenetic targets)

[17] = tested on: MY; experiment: Cell proliferation assay (MTS); format: cell-based; settings: Homo sapiens; ALL, 48 h
[18] = Liver microsomal stability; format: in vitro ADME; settings: mouse, mouse liver microsomes; read-out: Liver Microsomal Stability. Estimation T1/2
[19] = molecular target: T9, SUV39H2 (Homo sapiens, UniProt Q9H5I1); experiment: Epigenetics selectivity panel (BPS Bioscience); format: biochemical
T9 construct: purchased DiscoverX KINOMEscan (kinases); BPS Bioscience (epigenetic targets)

[20] = tested on: RT112; experiment: Cell proliferation assay (MTS); format: cell-based; settings: Homo sapiens, RT-112; Bladder
[21] = molecular target: T10, hERG potassium channels (Homo sapiens, UniProt Q12809); experiment: hERG blockade assay (Predictor fluorescence polarization); settings: read-out: hERG binding IC50
T10 construct: purchased Life technologies PV5365

T1 sequence (Q9UGL1 whole entry): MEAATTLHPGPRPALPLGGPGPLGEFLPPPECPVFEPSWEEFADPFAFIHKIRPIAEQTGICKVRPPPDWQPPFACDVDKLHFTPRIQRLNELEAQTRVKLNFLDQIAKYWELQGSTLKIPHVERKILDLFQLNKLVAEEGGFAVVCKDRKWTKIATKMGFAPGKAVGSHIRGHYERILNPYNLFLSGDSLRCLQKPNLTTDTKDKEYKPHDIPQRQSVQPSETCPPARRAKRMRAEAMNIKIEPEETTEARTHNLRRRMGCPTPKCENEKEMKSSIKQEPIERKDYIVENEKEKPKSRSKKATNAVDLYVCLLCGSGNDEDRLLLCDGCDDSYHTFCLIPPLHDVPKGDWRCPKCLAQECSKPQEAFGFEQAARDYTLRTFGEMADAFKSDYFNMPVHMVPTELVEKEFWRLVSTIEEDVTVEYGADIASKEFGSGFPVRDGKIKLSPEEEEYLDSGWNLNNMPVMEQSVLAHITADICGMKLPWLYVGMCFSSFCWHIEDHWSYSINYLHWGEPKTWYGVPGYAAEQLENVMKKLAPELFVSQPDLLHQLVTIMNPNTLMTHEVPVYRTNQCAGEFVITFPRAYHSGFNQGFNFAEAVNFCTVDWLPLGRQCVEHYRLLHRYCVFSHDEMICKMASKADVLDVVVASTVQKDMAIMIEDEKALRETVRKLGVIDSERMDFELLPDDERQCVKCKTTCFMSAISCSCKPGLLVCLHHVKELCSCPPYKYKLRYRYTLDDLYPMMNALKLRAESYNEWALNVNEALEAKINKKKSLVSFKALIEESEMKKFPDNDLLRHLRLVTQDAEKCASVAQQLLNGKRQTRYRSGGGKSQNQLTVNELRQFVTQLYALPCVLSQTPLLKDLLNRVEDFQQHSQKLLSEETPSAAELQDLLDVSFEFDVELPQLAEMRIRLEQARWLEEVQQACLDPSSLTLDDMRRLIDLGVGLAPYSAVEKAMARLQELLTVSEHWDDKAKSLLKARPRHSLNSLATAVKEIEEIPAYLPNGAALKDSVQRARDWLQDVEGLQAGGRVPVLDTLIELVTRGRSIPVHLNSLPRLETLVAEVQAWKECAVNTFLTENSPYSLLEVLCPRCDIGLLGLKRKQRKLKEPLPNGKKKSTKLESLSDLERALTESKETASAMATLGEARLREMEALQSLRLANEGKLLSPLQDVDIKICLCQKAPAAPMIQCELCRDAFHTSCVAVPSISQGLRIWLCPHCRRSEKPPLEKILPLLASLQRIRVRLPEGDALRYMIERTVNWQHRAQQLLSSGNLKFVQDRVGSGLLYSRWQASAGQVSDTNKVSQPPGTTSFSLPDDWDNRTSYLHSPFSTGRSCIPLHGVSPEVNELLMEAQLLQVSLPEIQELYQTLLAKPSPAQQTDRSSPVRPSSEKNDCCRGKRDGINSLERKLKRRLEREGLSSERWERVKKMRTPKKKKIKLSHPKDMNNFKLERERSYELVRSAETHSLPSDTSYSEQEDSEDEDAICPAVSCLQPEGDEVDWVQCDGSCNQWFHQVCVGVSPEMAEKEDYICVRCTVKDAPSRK
T2 sequence (P08684 whole entry): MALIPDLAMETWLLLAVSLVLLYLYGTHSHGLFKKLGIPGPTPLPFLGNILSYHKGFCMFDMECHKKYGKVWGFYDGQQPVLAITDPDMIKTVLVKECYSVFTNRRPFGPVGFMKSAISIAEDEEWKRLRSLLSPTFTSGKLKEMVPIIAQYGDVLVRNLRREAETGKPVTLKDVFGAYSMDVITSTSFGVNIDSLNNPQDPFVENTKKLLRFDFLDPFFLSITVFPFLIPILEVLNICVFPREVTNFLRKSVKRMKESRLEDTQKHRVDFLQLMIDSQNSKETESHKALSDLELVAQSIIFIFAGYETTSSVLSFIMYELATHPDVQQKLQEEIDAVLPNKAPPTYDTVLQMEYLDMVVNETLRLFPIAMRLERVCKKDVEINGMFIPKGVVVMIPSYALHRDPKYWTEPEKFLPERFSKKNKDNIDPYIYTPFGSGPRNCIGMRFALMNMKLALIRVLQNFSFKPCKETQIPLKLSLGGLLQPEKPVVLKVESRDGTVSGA
T3 sequence (P33261 whole entry): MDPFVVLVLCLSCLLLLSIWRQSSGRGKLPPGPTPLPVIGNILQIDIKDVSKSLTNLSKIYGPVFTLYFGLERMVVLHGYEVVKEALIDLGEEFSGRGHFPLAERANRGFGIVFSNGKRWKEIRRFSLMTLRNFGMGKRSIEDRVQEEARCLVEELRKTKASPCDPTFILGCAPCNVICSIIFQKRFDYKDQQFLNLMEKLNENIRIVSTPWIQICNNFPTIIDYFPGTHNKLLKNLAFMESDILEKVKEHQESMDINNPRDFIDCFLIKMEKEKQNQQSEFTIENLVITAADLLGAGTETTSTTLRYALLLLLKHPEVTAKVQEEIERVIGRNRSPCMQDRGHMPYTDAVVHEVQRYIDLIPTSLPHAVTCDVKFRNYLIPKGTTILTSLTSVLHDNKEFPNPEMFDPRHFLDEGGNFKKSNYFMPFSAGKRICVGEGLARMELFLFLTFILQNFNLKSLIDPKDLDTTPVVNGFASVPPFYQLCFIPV
T9 sequence (Q9H5I1 whole entry): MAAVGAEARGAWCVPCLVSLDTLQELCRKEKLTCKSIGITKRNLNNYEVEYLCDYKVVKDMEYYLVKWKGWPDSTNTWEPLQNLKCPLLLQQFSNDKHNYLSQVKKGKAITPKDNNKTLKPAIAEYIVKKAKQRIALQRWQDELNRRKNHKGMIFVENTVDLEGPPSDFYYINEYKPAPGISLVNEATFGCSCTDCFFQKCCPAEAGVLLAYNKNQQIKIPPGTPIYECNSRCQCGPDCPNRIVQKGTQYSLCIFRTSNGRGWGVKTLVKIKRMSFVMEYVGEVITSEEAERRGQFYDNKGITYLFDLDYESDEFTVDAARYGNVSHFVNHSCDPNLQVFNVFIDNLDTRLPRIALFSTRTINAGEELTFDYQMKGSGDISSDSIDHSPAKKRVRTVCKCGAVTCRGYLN
T4 sequence (P11712 whole entry): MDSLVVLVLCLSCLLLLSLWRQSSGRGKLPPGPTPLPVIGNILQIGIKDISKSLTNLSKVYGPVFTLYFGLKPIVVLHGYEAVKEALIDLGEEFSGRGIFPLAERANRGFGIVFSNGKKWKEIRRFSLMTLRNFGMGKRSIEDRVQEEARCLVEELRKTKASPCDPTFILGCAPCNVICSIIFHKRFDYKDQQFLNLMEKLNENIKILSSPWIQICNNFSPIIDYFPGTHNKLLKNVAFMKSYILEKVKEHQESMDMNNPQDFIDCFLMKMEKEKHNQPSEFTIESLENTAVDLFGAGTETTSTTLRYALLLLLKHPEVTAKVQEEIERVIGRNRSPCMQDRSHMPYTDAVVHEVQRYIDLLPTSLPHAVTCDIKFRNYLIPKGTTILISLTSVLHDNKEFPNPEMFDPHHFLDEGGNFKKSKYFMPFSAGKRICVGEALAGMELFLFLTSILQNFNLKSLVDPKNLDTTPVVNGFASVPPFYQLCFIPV
T8 sequence (Q9ULI0 whole entry): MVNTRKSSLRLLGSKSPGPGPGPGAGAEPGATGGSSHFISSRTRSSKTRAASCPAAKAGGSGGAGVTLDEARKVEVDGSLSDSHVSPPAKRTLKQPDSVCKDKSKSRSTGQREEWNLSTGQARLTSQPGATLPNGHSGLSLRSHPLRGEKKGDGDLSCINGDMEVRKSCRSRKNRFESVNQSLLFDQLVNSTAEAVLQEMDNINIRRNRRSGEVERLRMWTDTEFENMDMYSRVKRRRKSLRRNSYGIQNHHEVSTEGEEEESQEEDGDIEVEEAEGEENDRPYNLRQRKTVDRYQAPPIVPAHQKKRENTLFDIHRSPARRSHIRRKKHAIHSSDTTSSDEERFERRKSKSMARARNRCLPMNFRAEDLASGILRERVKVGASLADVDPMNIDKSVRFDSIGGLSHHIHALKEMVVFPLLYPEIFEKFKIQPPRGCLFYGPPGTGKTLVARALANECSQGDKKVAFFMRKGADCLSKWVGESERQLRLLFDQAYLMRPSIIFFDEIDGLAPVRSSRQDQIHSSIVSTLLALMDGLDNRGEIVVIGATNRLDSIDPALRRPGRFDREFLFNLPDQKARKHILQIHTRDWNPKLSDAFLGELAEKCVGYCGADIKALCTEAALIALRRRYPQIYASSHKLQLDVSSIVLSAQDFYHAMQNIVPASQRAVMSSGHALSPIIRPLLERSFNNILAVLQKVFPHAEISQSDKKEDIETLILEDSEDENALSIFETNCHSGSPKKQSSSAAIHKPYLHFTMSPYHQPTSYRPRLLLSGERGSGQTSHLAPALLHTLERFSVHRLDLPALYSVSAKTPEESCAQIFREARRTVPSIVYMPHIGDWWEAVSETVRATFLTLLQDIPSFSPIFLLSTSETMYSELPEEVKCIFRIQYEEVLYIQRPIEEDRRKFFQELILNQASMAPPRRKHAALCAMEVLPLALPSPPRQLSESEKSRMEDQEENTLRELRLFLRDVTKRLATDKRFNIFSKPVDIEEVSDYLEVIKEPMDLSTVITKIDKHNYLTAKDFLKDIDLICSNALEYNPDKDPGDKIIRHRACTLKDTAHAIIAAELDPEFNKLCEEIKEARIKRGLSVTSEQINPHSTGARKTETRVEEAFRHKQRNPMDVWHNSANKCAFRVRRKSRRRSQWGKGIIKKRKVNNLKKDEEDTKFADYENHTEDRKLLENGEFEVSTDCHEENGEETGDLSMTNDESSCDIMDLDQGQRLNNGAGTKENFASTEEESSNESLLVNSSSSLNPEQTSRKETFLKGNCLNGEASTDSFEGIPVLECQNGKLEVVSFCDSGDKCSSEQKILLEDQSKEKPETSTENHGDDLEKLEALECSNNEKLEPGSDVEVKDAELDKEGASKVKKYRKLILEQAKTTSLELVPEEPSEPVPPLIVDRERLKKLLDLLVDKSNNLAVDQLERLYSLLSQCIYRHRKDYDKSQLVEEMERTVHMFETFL

SMILES: COc1cc2c(NC3CCN(C)CC3)cc(-c3ccc(C)o3)nc2cc1OCCCN1CCCC1 [CM-272, 6-methoxy-2-(5-methyl-2-furyl)-N-(1-methyl-4-piperidyl)-7-(3-pyrrolidin-1-ylpropoxy)quinolin-4-amine]
- clearance ([1]; […]): 15.2 mL/min/kg
- half-life ([1]; […]): 24.2 h
- GI50 [2]: 874 nM
- GI50 [3]: 2610 nM
- GI50 [4]: 269 nM
- MTD [5]: 2.5 mg/kg
- GI50 [6]: 604 nM
- inhibition at 10 µM [7]: 5%
- P450s Inhibition: 3A4 [8]: < 10%
- P450s Inhibition: 2C19 [9]: < 10%
- P450s Inhibition: 2C9 [10]: < 10%
- P450s Inhibition: 2D6 [11]: < 10%
- GI50 [12]: 817 nM
- IC50 [13]: 1200 nM
- IC50 [14]: 7 nM
- GI50 [15]: 1320 nM
- inhibition at 10 µM [16]: 0%
- GI50 [17]: 816 nM
- half-life at 1 µM [18]: 0.587 h
- inhibition at 10 µM [19]: 4%
- GI50 [20]: 899 nM

SMILES: COc1cc2c(NCC3CCN(C)CC3)cc(-c3ccc(C)o3)nc2cc1OCCCN1CCCC1 [CM-579, 6-methoxy-2-(5-methyl-2-furyl)-N-[(1-methyl-4-piperidyl)methyl]-7-(3-pyrrolidin-1-ylpropoxy)quinolin-4-amine]
- AUC(0-t) ([1]; 1 mg/kg): 0.268 µM·h
- Cmax ([1]; 1 mg/kg): 191 nM
- clearance ([1]; 1 mg/kg): 95 mL/min/kg
- half-life ([1]; 1 mg/kg): 6.26 h
- GI50 [2]: 1390 nM
- GI50 [3]: > 5000 nM
- GI50 [4]: 385 nM
- MTD [5]: ≤ 1 mg/kg
- GI50 [6]: 1020 nM
- inhibition at 10 µM [7]: 27%
- P450s Inhibition: 3A4 [8]: < 10%
- P450s Inhibition: 2C19 [9]: < 10%
- P450s Inhibition: 2C9 [10]: < 10%
- P450s Inhibition: 2D6 [11]: < 10%
- IC50 [13]: 1000 nM
- IC50 [14]: 67 nM
- GI50 [15]: 409 nM
- inhibition at 10 µM [16]: 0%
- GI50 [17]: 3950 nM
- half-life at 1 µM [18]: 0.178 h
- inhibition at 10 µM [19]: 0%
- GI50 [20]: 319 nM
- IC50 [21]: > 100000 nM
